Source: patent publication US12252503B2, “Cannabinoid derivatives” (priority 2019, dated 2025)

Tests used:
human CB2 receptor = molecular target: T1, human CB2 receptor (Homo sapiens, UniProt P34972); test: CB2 radioligand competitive binding assay ([3H]CP 55,940 displacement); conditions: for Selectivity CB2 (fold difference in selectivity between CB1 and CB2 binding): given in the column of the receptor with the higher binding affinity, 1.00 in both = about the same affinity; for IC50: membranes of CHO-K1 cells expressing human CB2 receptor, 0.6 nM [3H]CP55,940
T1 construct: host or cells: CHO-K1 (Chinese hamster ovary) cells, membrane preparation
Experimental: The membranes were prepared from CHO-K1 (Chinese hamster ovary) cells stably transfected with the human CB2 receptor (Cat. #ES-111-C; Perkin Elmer, Boston, MA). The cells were grown adherently and maintained in Ham's F12 medium containing 10% fetal bovine serum (FBS), penicillin, streptomycin and geneticin (G418) at 37° C. in a humid atmosphere of 5% CO2 following the manufacturer's instructions.
For membrane preparation the cells were washed with PBS and scraped off the plates in cold homogenization buffer (25 mM HEPES (pH 7.4), 2 mM EDTA) containing protease inhibitor cocktail (Sigma Cat. #P8340). The cell suspension was homogenized with a Pro-PK-01200D Polytron Homogenizer (Pro Scientific) and then centrifuged for 30 min at 120,000×g. The supernatant was discarded and the pellet was re-suspended in the homogenization buffer and stored at −80° C. until the time of use.
In this experiment, 3H radiolabeled CP 55,940, i.e. [3H]CP 55,940 (Perkin Elmer, Boston, MA), was used as a radioligand for the CB2 receptor to determine the binding affinity of compounds for the CB2 receptor (Scheme 4; above).
The competition binding experiments (single dose and dose-response) were performed by incubating 0.6 nM of [3H]CP55,940 (specific activity 101 Ci/mmol, Perkin Elmer) and different concentrations of compounds disclosed herein with membranes prepared as above from CHO-K1 cells expressing human CB2 receptor (1 μg of protein/well), 50 mM Tris-HCl (pH 7.4), 5 mM MgCl2, 1 mM CaCl2, and 2 mg/mL BSA.
For the single dose experiments, the compound stocks (usually 10 mM in DMSO) were diluted to working stocks in the binding buffer to give the final compound concentrations of 10 μM and 1 μM. For the dose-response experiments the test compounds were sequentially diluted to provide the desired concentration range for the IC50 determination. In each case the compounds were pre-incubated with the membrane for 20 min, before adding the radioligand.
After incubation with the radioligand for 60 min at 37° C., the incubation was terminated by rapid filtration of assay mixture through MultiScreen®HTS^+ 96-well filter plates (Millipore, Cat. #MSFCNXB), pre-soaked for 60 min with 50 mM Tris-HCl (pH 7.4) containing 0.33% polyethylenimine (PEI). The nonspecific binding (NSB) was determined in the presence of 10 μM unlabelled CP55,940. After drying the filter plate at 50° C. for at least 60 min, the filter-bound radioactivity was determined by scintillation spectrometry using the 1450 MicroBeta Plate Counter (Perkin Elmer, Boston, MA). From the dose-response experiments, the IC50 values were determined (see Table 1, CB2 IC50).

human CB1 receptor [1] = molecular target: T2, human CB1 receptor (Homo sapiens, UniProt P21554); test: CB1 radioligand competitive binding assay ([3H]CP 55,940 displacement); conditions: for IC50: membranes of CHO-K1 cells expressing human CB1 receptor, 0.8 nM [3H]CP 55,940
T2 construct: host or cells: CHO-K1 (Chinese hamster ovary) cells, membrane preparation

human CB1 receptor [2] = molecular target: T2, human CB1 receptor; test: PathHunter β-Arrestin functional assay, CB1 receptor, agonist mode; type: cell-based; conditions: PathHunter CHO-K1 CNR1 β-Arrestin cells, normalized to CP55,940
human CB1 receptor [3] = molecular target: T2, human CB1 receptor; test: PathHunter β-Arrestin functional assay, CB1 receptor, antagonist mode; type: cell-based; conditions: range stated for the group of compounds, read-out: IC50 towards human CB1 receptor in antagonist mode

T1 sequence (P34972 whole entry): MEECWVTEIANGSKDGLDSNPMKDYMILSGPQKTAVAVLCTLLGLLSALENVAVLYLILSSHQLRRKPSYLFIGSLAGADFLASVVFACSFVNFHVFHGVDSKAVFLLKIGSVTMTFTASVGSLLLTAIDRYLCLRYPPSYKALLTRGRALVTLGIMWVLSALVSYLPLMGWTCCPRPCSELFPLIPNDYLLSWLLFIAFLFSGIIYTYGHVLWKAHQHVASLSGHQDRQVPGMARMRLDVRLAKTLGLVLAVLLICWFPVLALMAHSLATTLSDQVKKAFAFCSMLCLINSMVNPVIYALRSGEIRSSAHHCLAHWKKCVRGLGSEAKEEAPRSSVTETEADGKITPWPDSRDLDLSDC
T2 sequence (P21554 whole entry): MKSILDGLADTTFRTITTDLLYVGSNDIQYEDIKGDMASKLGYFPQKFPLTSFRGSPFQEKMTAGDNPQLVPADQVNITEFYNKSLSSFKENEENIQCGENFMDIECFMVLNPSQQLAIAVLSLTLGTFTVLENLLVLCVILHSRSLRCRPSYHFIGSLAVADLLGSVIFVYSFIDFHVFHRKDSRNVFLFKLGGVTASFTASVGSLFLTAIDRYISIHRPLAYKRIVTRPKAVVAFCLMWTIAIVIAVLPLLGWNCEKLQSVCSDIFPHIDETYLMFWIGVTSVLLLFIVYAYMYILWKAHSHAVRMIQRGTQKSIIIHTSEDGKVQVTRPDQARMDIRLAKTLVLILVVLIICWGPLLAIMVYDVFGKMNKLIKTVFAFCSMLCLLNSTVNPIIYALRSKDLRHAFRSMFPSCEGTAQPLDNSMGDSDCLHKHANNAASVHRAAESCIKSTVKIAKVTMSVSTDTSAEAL

Compound	Selectivity CB2 (fold difference in selectivity between CB1 and CB2 binding) (human CB2 receptor)	IC50 (human CB2 receptor)	IC50 (human CB1 receptor [1])	activity towards the human CB1 receptor in agonist mode (human CB1 receptor [2])	IC50 (human CB1 receptor [3])	Selectivity CB1 (fold difference in selectivity between CB1 and CB2 binding) (human CB1 receptor [1]; given in the column of the receptor with the higher binding affinity, 1.00 in both = about the same affinity)
CCCCCc1cc(O)c(C2C=C(C)CCC2)c(OP(=O)(Cc2ccccc2)OCC)c1 (stereo not drawn) [Example 35c, ethyl (6-hydroxy-5′-methyl-4-pentyl-1′,2′,3′,4′-tetrahydro-[1,1′-biphenyl]-2-yl) benzylphosphonate]	3.25 fold	1000 to 4990 nM	≥ 5000 nM	–	–	–
C=C(C)C1CCC(C)=CC1c1c(O)cc(C(C)(C)CCCCCC)cc1OP(=O)(Cc1ccccc1)OCC (stereo not drawn) [Example 39d, ethyl (6-hydroxy-5′-methyl-4-(2-methyloctan-2-yl)-2′-(prop-1-en-2-yl)-1′,2′,3′,4′-tetrahydro-[1,1′-biphenyl]-2-yl) benzylphosphonate]	1.10 fold	500 to 990 nM	500 to 990 nM	–	–	–
CCCCCc1cc(OP(=O)(OCC)c2ccccc2)c(-c2cccc(C)c2)c(OP(=O)(OCC)c2ccccc2)c1 (stereo not drawn) [34′a, diethyl (3′-methyl-4-pentyl-[1,1′-biphenyl]-2,6-diyl) bis(phenylphosphonate)]	1.95 fold	1000 to 4990 nM	1000 to 4990 nM	–	–	–
CCCCCc1cc(O)c(C2C=C(C)CCC2)c(OP(=O)(OCC)c2ccccc2)c1 (stereo not drawn) [Example 34c, ethyl (6-hydroxy-5′-methyl-4-pentyl-1′,2′,3′,4′-tetrahydro-[1,1′-biphenyl]-2-yl) phenylphosphonate]	1.69 fold	1000 to 4990 nM	1000 to 4990 nM	–	–	–
CCCCCCC(C)(C)c1cc(O)c(C2C=C(C)CCC2)c(OP(=O)(OC)c2ccccc2)c1 (stereo not drawn) [Example 37c, 6-hydroxy-5′-methyl-4-(2-methyloctan-2-yl)-1′,2′,3′,4′-tetrahydro-[1,1′-biphenyl]-2-yl methyl phenylphosphonate]	–	–	–	minimal to no activity	780 to 3000 nM	–
CCCCCc1cc(O)c(-c2cccc(C)c2)c(OP(=O)(OCC)c2ccccc2)c1 (stereo not drawn) [Example 34a, ethyl (6-hydroxy-3′-methyl-4-pentyl-[1,1′-biphenyl]-2-yl) phenylphosphonate]	10.26 fold	< 500 nM	1000 to 4990 nM	–	–	–
C=C(C)C1CCC(C)=CC1c1c(O)cc(C(C)(C)CCCCCC)cc1OP(=O)(Cc1ccccc1)OC (stereo not drawn) [Example 38d, 6-hydroxy-5′-methyl-4-(2-methyloctan-2-yl)-2′-(prop-1-en-2-yl)-1′,2′,3′,4′-tetrahydro-[1,1′-biphenyl]-2-yl methyl benzylphosphonate]	1.82 fold	< 500 nM	500 to 990 nM	minimal to no activity	780 to 3000 nM	–
CCCCCCC(C)(C)c1cc(O)c(C2C=C(C)CCC2)c(OP(=O)(Cc2ccccc2)OC)c1 (stereo not drawn) [Example 38c, 6-hydroxy-5′-methyl-4-(2-methyloctan-2-yl)-1′,2′,3′,4′-tetrahydro-[1,1′-biphenyl]-2-yl methyl benzylphosphonate]	4.96 fold	500 to 990 nM	1000 to 4990 nM	minimal to no activity	780 to 3000 nM	–
CCCCCc1cc(O)c(C2C=C(C)CCC2)c(OP(=O)(Cc2ccccc2)OC)c1 (stereo not drawn) [Example 4c, 6-hydroxy-5′-methyl-4-pentyl-1′,2′,3′,4′-tetrahydro-[1,1′-biphenyl]-2-yl methyl benzylphosphonate]	1.54 fold	1000 to 4990 nM	1000 to 4990 nM	–	–	–
C=C(C)C1CCC(C)=CC1c1c(O)cc(CCCCC)cc1OP(=O)(Cc1ccccc1)OC (stereo not drawn) [Example 4d, 6-hydroxy-5′-methyl-4-pentyl-2′-(prop-1-en-2-yl)-1′,2′,3′,4′-tetrahydro-[1,1′-biphenyl]-2-yl methyl benzylphosphonate]	1.00 fold	< 500 nM	< 500 nM	minimal to no activity	780 to 3000 nM	1.00 fold
CCCCCc1cc(O)c(-c2cccc(C)c2)c(OP(=O)(Cc2ccccc2)OCC)c1 (stereo not drawn) [Example 35a, ethyl (6-hydroxy-3′-methyl-4-pentyl-[1,1′-biphenyl]-2-yl) benzylphosphonate]	–	1000 to 4990 nM	–	–	–	–
C=C(C)C1CCC(C)=CC1c1c(O)cc(C(C)(C)CCCCCC)cc1OP(=O)(OC)c1ccccc1 (stereo not drawn) [Example 37d, 6-hydroxy-5′-methyl-4-(2-methyloctan-2-yl)-2′-(prop-1-en-2-yl)-1′,2′,3′,4′-tetrahydro-[1,1′-biphenyl]-2-yl methyl phenylphosphonate]	2.02 fold	< 500 nM	500 to 990 nM	minimal to no activity	780 to 3000 nM	–
